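Exposure lasted 48 hours, with cells grown in 96-well plates and compounds tested at five concentrations. GI50 is the concentration that inhibits growth by half.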 Active and inactive are the calls of the source. Cut-off read from the data, not from the text of the source: active = GI50 up to about 1.1 µM and inactive = higher.
Assays:
Assay in all cases: inhibition of tumour cell growth, NCI panel, 48 h
HT-29 = system: HT-29
SK-MEL-5 = system: SK-MEL-5
HCT-116 = system: HCT-116
UACC-62 = system: UACC-62
OVCAR-8 = system: OVCAR-8
T47D = system: T47D
A498 = system: A498
KM12 = system: KM12
K562 = system: K562
SK-MEL-28 = system: SK-MEL-28
SNB-75 = system: SNB-75
Malme-3M = system: Malme-3M
ACHN = system: ACHN
MCF7 = system: MCF7
OVCAR-4 = system: OVCAR-4
SF-539 = system: SF-539
CAKI-1 = system: CAKI-1
SK-OV-3 = system: SK-OV-3
OVCAR-3 = system: OVCAR-3
SF-295 = system: SF-295

Measured: GI50

CCOC(=O)C1(C)CCc2sc(N)c(C#N)c21 (configuration not stated)
inactive: HT-29 > 100 µM | SK-MEL-5 > 100 µM | HCT-116 > 100 µM | UACC-62 > 100 µM | OVCAR-8 > 100 µM | T47D > 100 µM | A498 > 100 µM | KM12 > 100 µM | K562 > 100 µM | SK-MEL-28 > 100 µM | SNB-75 > 100 µM | Malme-3M > 100 µM | ACHN > 100 µM | MCF7 > 100 µM

CC12O[C@]3([C@H](C(=O)N4CCOC43C)[C@H]1Cl)[C@H]1O[C@H]12 (some centres not stated)
inactive: HT-29 > 100 µM | SK-MEL-5 > 100 µM | HCT-116 > 100 µM | UACC-62 > 100 µM | OVCAR-8 > 100 µM | OVCAR-4 > 100 µM | T47D > 100 µM | A498 > 100 µM | KM12 > 100 µM | K562 98.6 µM | SF-539 > 100 µM | SK-MEL-28 > 100 µM | SNB-75 > 100 µM | ACHN > 100 µM | CAKI-1 > 100 µM | MCF7 > 100 µM | SK-OV-3 > 100 µM | OVCAR-3 > 100 µM | SF-295 > 100 µM

CSc1scc2c1/C(=N/NC(N)=O)CCC2
inactive: HT-29 > 100 µM | SK-MEL-5 41.1 µM | HCT-116 70 µM | UACC-62 > 100 µM | OVCAR-8 > 100 µM | OVCAR-4 > 100 µM | T47D > 100 µM | A498 39.7 µM | KM12 86.1 µM | K562 > 100 µM | SF-539 > 100 µM | SK-MEL-28 > 100 µM | SNB-75 36.7 µM | ACHN > 100 µM | CAKI-1 69.7 µM | MCF7 90.4 µM | SK-OV-3 > 100 µM | OVCAR-3 > 100 µM | SF-295 60.5 µM

CC#CC(O)(C(=O)OCCCN(C)C)C1CCCCC1 (configuration not stated)
inactive: HT-29 > 100 µM | SK-MEL-5 > 100 µM | HCT-116 > 100 µM | UACC-62 > 100 µM | OVCAR-8 > 100 µM | T47D > 100 µM | A498 > 100 µM | KM12 > 100 µM | K562 > 100 µM | SF-539 > 100 µM | SK-MEL-28 > 100 µM | SNB-75 > 100 µM | Malme-3M > 100 µM | ACHN > 100 µM | MCF7 > 100 µM | SK-OV-3 > 100 µM | OVCAR-3 > 100 µM | SF-295 > 100 µM

CCOC(=O)c1cnc2oc3ccc(O)cc3c2c1-c1ccccc1
inactive: HT-29 71.6 µM | SK-MEL-5 29.2 µM | HCT-116 57.8 µM | UACC-62 12.8 µM | OVCAR-8 12.7 µM | OVCAR-4 24.4 µM | T47D > 100 µM | A498 > 100 µM | K562 17.6 µM | SF-539 17.3 µM | SK-MEL-28 36.6 µM | Malme-3M 23 µM | ACHN 20.9 µM | CAKI-1 > 100 µM | MCF7 44.7 µM | SK-OV-3 15.8 µM | OVCAR-3 > 100 µM | SF-295 37.2 µM

CC(C)(C)C1CCC2c3c([nH]c4ccccc34)C3C(=O)N(c4ccc([N+](=O)[O-])cc4)C(=O)C3C2C1 (configuration not stated)
inactive: HT-29 3.89 µM | SK-MEL-5 12.2 µM | HCT-116 8.09 µM | UACC-62 3.12 µM | OVCAR-8 19 µM | OVCAR-4 5.62 µM | T47D 13.9 µM | A498 24.3 µM | KM12 1.77 µM | K562 5.96 µM | SF-539 20.7 µM | SK-MEL-28 96.6 µM | SNB-75 16.9 µM | Malme-3M 20.5 µM | ACHN 36.6 µM | MCF7 2.79 µM | SK-OV-3 35.1 µM | OVCAR-3 10.7 µM | SF-295 27.2 µM

From ChEMBL document CHEMBL1201862, “PubChem BioAssay data set” (2004)
